Source: patent US20250250284A1, “MACROCYCLE COMPOUNDS USEFUL AS KRAS INHIBITORS” (Hoffmann-La Roche Inc., priority 2022, published 2025)

How the values were obtained:
[1] = test system: NCI-H358 cells; test: Cell viability assay (Cell Counting Kit-8), KRAS G12C; format: cell-based; details: Homo sapiens, 72 hrs incubation, CCK-8
Procedure: (§1) The purpose of this cellular assay was to determine the effects of test compounds on the proliferation of human cancer cell lines NCI-H358 (ATCC-CRL5807) cells, AGS (ATCC-CRL-1739) cells, SW620 (ATCC-CCL-227) over a 3-day treatment period by quantifying the amount of NADPH present at endpoint using Cell Counting Kit-8.
(§2) Cells were seeded at 5,000 cells/well (NCI-H358), 2,000 cells/well (AGS) 2,000 cells/well (SW620) in 96-well assay plates (Corning-3699) and incubated overnight. On the day of the assay, diluted compounds were then added in a final concentration of 0.5% DMSO. After 72 hrs incubation, a tenth of the volume of cell counting kit 8 (Dnjindo-CK04) was added into each well. Read the signal (OD450 minus OD650) using EnVision after 2 hrs incubation. IC50 was determined by fitting a 4-parameter sigmoidal concentration response model.

[2] = test system: AGS cells; test: Cell viability assay (Cell Counting Kit-8), KRAS G12D; format: cell-based; details: Homo sapiens, 72 hrs incubation, CCK-8
Procedure: as §1, §2

[3] = test system: SW620 cells; test: Cell viability assay (Cell Counting Kit-8), KRAS G12V; format: cell-based; details: Homo sapiens, SW-620, 72 hrs incubation, CCK-8
Procedure: as §1, §2

[4] = molecular target: KRAS G12C-BRAF complex (Homo sapiens (Human), UniProt P01116+P62937, G12C); test: KRAS-BRAF with CYPA (500 nM) interaction assay (TR-FRET), G12C; format: binding; details: GMPPNP loaded 6His-KRAS, GST-BRAF RBD, 3 hours
Procedure: (§3) KRAS-BRAF with CYPA (500 nM) Interaction Assay
(§4) In this example, TR-FRET was also used to measure the compound or compound-CYPA dependent disruption of the KRAS G12C-BRAF complex. This protocol was also used to measure disruption of KRAS G12D or KRAS G12V binding to BRAF by a compound of the invention, respectively. In assay buffer containing 25 mM HEPES PH=7.4 (4-(2-hydroxyethyl)-1-piperazineethanesulfonic acid, Thermo, 15630080), 0.002% Tween20, 0.1% BSA, 100 mM NaCl, 5 mM MgCl2, 10 μM GMPPNP (Guanosine 5′-[β,γ-imido]triphosphate trisodium salt hydrate, Sigma, G0635), tagless CYPA, GMPPNP loaded 6His-KRAS proteins, and GST-BRAF^RBD were mixed in a well of a 384-well assay plate at final concentrations of 50 nM, 6.25 nM and 1 nM, respectively. Compound was present in plate wells as a 16-point 3-fold dilution series starting at a final concentration of 10 μM and incubated for 3 hours. A mixture of MAb Anti-6His-XL665 (Cisbio, 61HISXLB) and Mab anti-GST-TB cryptate (Cisbio, 61GSTTLB) was then added at a final concentration of 6.67 nM and 0.21 nM, respectively, and the plate was incubated for an additional 1.5 hours. TR-FRET signal was read on a PHERstar FSX microplate reader (Ex320 nm, Em 665/615 nm). Compounds that facilitate disruption of the KRAS-BRAF complex were identified as those eliciting a decrease in the TR-FRET ratio relative to DMSO control wells.

[5] = molecular target: KRAS G12D binding to BRAF (Homo sapiens (Human), UniProt P01116+P62937, G12D); test: KRAS-BRAF with CYPA (500 nM) interaction assay (TR-FRET), G12D; details: GMPPNP loaded 6His-KRAS, GST-BRAF RBD, 3 hours
Procedure: as §3, §4

[6] = molecular target: KRAS G12V binding to BRAF (Homo sapiens (Human), UniProt P01116+P62937, G12V); test: KRAS-BRAF with CYPA (500 nM) interaction assay (TR-FRET), G12V; details: GMPPNP loaded 6His-KRAS, GST-BRAF RBD, 3 hours
Procedure: as §3, §4

[7] = test system: phosphorylation of ERK, KRAS G12C in NCI-H358 cells; test: pERK inhibition assay, KRAS G12C; format: cell-based; details: Homo sapiens, 4 hours of incubation
Procedure: (§5) This assay is to measure the ability of test compounds in inhibiting the phosphorylation of ERK, the downstream signaling of KRAS G12C in NCI-H358 cells, KRAS G12D in AGS cells, and KRAS G12V in SW620. NCI-H358 (ATCC-CRL5807) cells, AGS (ATCC-CRL-1739) cells, SW620 (ATCC-CCL-227) cells were all grown and maintained using RPMI-1640 medium (Thermo Fisher Scientific) with 10% fetal bovine serum and 1% penicillin/streptomycin. On the day prior to compound addition, cells were plated in tissue culture-treated 96 well plates (Corning-3699) at a density of 30,000 cell/well, 20,000 cell/well, 30,000 cell/well for NCI-H358, AGS and SW620 respectively, and allowed for attachment overnight. Diluted compounds were then added in a final concentration of 0.5% DMSO. After 4 hours of incubation, the medium was removed, 100 μL of 4% formaldehyde was added, and the assay plates were incubated at room temperature for 20 minutes. The plates were then washed once with phosphate buffered saline (PBS), and permeabilized with 100 μL of chilled methanol for 10 minutes. Non-specific antibody binding to the plates was blocked using 50 μL 1×BSA blocking buffer (Thermo-37520, 10-fold dilution by Phosphate-Buffered Saline Tween (PBST) for at least 1 hour at room temperature.
(§6) The amount of phosphor-ERK was determined using an antibody specific for phosphorylated form of ERK. Primary antibody (pERK, CST-4370, Cell Signaling Technology) was diluted 1:300 in blocking buffer, with 50 μL aliquoted to each well, and incubated overnight at 4° C. Cells was washed five times for 5 minutes with PBST. Secondary antibody (HRP-linked anti-rabbit IgG, CST-7074, Cell Signaling Technology) was diluted 1:1000 in blocking buffer, and 50 μL was added to each well and incubated 1-2 hrs at room temperature. Cells was washed 5 times for 5 minutes with PBST, 100 μL TMB ELISA substrate (abcam-ab171523) were added and gently shake for 20 minutes. 50 μL stop solution (abcam-ab171529) were added, and then read the signal (OD450) by EnVision.
(§7) IC50 was determined by fitting a 4-parameter sigmoidal concentration response model.

[8] = test system: phosphorylation of ERK, KRAS G12D in AGS cells; test: pERK inhibition assay, KRAS G12D; format: cell-based; details: Homo sapiens, 4 hours of incubation
Procedure: as §5, §6, §7

[9] = test system: phosphorylation of ERK, KRAS G12V in SW620; test: pERK inhibition assay, KRAS G12V; format: cell-based; details: Homo sapiens, SW-620; SW620 cells, 4 hours of incubation
Procedure: as §5, §6, §7

KRAS G12D binding to BRAF, sequence (P01116-2 other isoform, or with tags, fused parts or gaps G12D): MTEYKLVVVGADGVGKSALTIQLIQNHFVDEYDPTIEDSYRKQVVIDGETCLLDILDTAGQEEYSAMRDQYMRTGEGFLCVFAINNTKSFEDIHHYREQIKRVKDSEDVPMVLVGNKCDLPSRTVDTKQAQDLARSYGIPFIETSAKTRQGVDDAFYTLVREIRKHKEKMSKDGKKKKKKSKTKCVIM
KRAS G12D binding to BRAF, sequence (P62937 whole entry): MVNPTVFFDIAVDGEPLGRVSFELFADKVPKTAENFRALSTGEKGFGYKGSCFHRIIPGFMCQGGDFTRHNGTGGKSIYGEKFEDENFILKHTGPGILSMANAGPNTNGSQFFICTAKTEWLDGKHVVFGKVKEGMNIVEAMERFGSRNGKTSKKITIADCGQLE
KRAS G12C-BRAF complex, sequence (P01116-2 other isoform, or with tags, fused parts or gaps G12C): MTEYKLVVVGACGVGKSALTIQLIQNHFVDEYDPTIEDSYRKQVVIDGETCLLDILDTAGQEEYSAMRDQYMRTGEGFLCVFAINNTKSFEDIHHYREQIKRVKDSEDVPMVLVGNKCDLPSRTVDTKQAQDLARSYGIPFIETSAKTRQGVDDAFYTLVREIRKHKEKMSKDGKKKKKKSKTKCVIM
KRAS G12C-BRAF complex, sequence (P62937 whole entry): as the sequence (P62937 whole entry) above
KRAS G12V binding to BRAF, sequence (P01116-2 other isoform, or with tags, fused parts or gaps G12V): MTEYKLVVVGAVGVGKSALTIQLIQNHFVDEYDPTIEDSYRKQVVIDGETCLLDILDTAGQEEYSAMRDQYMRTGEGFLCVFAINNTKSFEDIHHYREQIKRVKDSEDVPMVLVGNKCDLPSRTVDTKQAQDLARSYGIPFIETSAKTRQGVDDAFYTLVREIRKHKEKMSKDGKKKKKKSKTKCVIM
KRAS G12V binding to BRAF, sequence (P62937 whole entry): as the sequence (P62937 whole entry) above

`CCn1c(-c2cc(N3CCN(C)CC3)cnc2[C@H](C)OC)c2c3cc(c(F)cc31)-c1csc(n1)C[C@H](NC(=O)[C@H]1[C@@H]3COC[C@@H]31)C(=O)N1CCC[C@H](N1)C(=O)OCC(C)(C)C2` (atropisomer, axis not shown; (M)) [Example 2, (1R,5S)—N-[(7S,13S)-21-ethyl-24-fluoro-(20M)-20-[2-[(1S)-1-methoxyethyl]-5-(4-methylpiperazin-1-yl)-3-pyridyl]-17,17-dimethyl-8,14-dioxo-15-oxa-4-thia-9,21,27,28-tetrazapentacyclo[17.5.2.1^2,5.1^9,13.0^22,26]octacosa-1(25),2,5(28),19,22(26),23-hexaen-7-yl]-3-oxabicyclo[3.1.0]hexane-6-carboxamide] gave an IC50 [1] of 0.011 µM, an IC50 [2] of 0.059 µM and an IC50 [3] of 0.005 µM. For the same molecule, the IC50 [4] was 0.134 µM, the IC50 [5] was 0.957 µM and the IC50 [6] was 0.174 µM. The IC50 [7] was 0.009 µM, the IC50 [8] was 0.018 µM and the IC50 [9] was 0.003 µM.
Work on `CO[C@@H](C)c1ncc(N2CCN(C)CC2)cc1C1=C2CC(C)(C)COC(=O)[C@@H]3CCCN(N3)C(=O)[C@@H](NC(=O)[C@H]3C[C@@H]3C)Cc3nc(cs3)-c3ccc(c2c3)C1` (single isomer, unassigned) [Example A122, reference compound] yielded an IC50 [1] of under 0.001 µM, an IC50 [2] of 0.001 µM and an IC50 [3] of under 0.001 µM. For the same molecule, the IC50 [4] was 0.013 µM, the IC50 [5] was 0.124 µM and the IC50 [6] was 0.025 µM. It also gave an IC50 [7] of 0.002 µM, an IC50 [8] of 0.001 µM and an IC50 [9] of under 0.001 µM.
For `CCn1c(-c2cc(N3CCOCC3)cnc2[C@H](C)OC)c2c3cc(c(F)cc31)-c1csc(n1)C[C@H](NC(=O)[C@H]1C[C@@H]1C)C(=O)N1CCC[C@H](N1)C(=O)OCC(C)(C)C2` (atropisomer, axis not shown; (M)) [Example 8, (1S,2S)—N-[(7S,13S)-21-ethyl-24-fluoro-(20M)-20-[2-[(1S)-1-methoxyethyl]-5-morpholino-3-pyridyl]-17,17-dimethyl-8,14-dioxo-15-oxa-4-thia-9,21,27,28-tetrazapentacyclo[17.5.2.1^2,5.1^9,13.0^22,26]octacosa-1(25),2,5(28),19,22(26),23-hexaen-7-yl]-2-methyl-cyclopropanecarboxamide], the IC50 [1] was 0.016 µM, the IC50 [2] was 1.49 µM and the IC50 [3] was 0.013 µM. The IC50 [4] was 0.16 µM, the IC50 [5] was 1.67 µM and the IC50 [6] was 0.143 µM. It also gave an IC50 [7] of 0.023 µM, an IC50 [8] of 0.056 µM and an IC50 [9] of 0.008 µM.
For `CCn1c(-c2cc(N3CCN(C)CC3)cnc2[C@H](C)OC)c2c3cc(c(F)cc31)-c1csc(n1)C[C@H](NC(=O)[C@H]1C[C@@H]1C)C(=O)N1CCC[C@H](N1)C(=O)OCC(C)(C)C2` (atropisomer, axis not shown; (M)) [Example 1, (1S,2S)—N-[(7S,13S)-21-ethyl-24-fluoro-(20M)-20-[2-[(1S)-1-methoxyethyl]-5-(4-methylpiperazin-1-yl)-3-pyridyl]-17,17-dimethyl-8,14-dioxo-15-oxa-4-thia-9,21,27,28-tetrazapentacyclo[17.5.2.1^2,5.1^9,13.0^22,26]octacosa-1(25),2,5(28),19,22(26),23-hexaen-7-yl]-2-methyl-cyclopropanecarboxamide], the IC50 [1] was 0.018 µM, the IC50 [2] was 4.63 µM and the IC50 [3] was 0.009 µM. It also gave an IC50 [4] of 0.108 µM, an IC50 [5] of 0.915 µM and an IC50 [6] of 0.211 µM. For the same molecule, the IC50 [7] was 0.011 µM, the IC50 [8] was 0.034 µM and the IC50 [9] was 0.004 µM.
`CCn1c(-c2cc(N3CCN(CC(F)(F)F)CC3)cnc2[C@H](C)OC)c2c3cc(c(F)cc31)-c1csc(n1)C[C@H](NC(=O)[C@H]1C[C@@H]1C)C(=O)N1CCC[C@H](N1)C(=O)OCC(C)(C)C2` (atropisomer, axis not shown; (M)) [Example 7, (1S,2S)—N-[(7S,13S)-21-ethyl-24-fluoro-(20M)-20-[2-[(1S)-1-methoxyethyl]-5-[4-(2,2,2-trifluoroethyl)piperazin-1-yl]-3-pyridyl]-17,17-dimethyl-8,14-dioxo-15-oxa-4-thia-9,21,27,28-tetrazapentacyclo[17.5.2.1^2,5.1^9,13.0^22,26]octacosa-1(25),2,5(28),19,22(26),23-hexaen-7-yl]-2-methyl-cyclopropanecarboxamide] gave an IC50 [1] of 0.074 µM, an IC50 [2] of 0.389 µM and an IC50 [3] of 0.027 µM. The IC50 [4] was 0.192 µM, the IC50 [5] was over 10 µM and the IC50 [6] was 0.697 µM. For the same molecule, the IC50 [7] was 0.071 µM, the IC50 [8] was 0.115 µM and the IC50 [9] was 0.02 µM.
Work on `CO[C@@H](C)c1ncc(N2CCN(C)CC2)cc1-c1c2c3cc(c(F)cc3n1CC(F)(F)F)-c1csc(n1)C[C@H](NC(=O)[C@H]1C[C@@H]1C)C(=O)N1CCC[C@H](N1)C(=O)OCC(C)(C)C2` (atropisomer, axis not shown; (M)) [Example 4, (1S,2S)—N-[(7S,13S)-24-fluoro-(20M)-20-[2-[(1S)-1-methoxyethyl]-5-(4-methylpiperazin-1-yl)-3-pyridyl]-17,17-dimethyl-8,14-dioxo-21-(2,2,2-trifluoroethyl)-15-oxa-4-thia-9,21,27,28-tetrazapentacyclo[17.5.2.1^2,5.1^9,13.0^22,26]octacosa-1(25),2,5(28),19,22(26),23-hexaen-7-yl]-2-methyl-cyclopropanecarboxamide] yielded an IC50 [1] of 0.019 µM, an IC50 [2] of 1.27 µM and an IC50 [3] of 0.013 µM. It also gave an IC50 [4] of 0.036 µM, an IC50 [5] of 0.544 µM and an IC50 [6] of 0.095 µM. The IC50 [7] was 0.02 µM, the IC50 [8] was 0.047 µM and the IC50 [9] was 0.007 µM.
